Source: patent US8192962B2, “Processes for detecting toxic substances” (Daikin Industries, Ltd., priority 2001, dated 2012)

Test system: DNA repair protein genes
Test: DNA chip mRNA expression in yeast, DNA repair protein genes (Table 3)
Assay type: cell-based, Saccharomyces cerevisiae S288C
Conditions: incubated two hours, concentrations as in the 1st table
Description: Yeast (Saccharomyces cerevisiae S288C (α SUC2mal mel gap2 CUP1)) were incubated at 25° C. on YPD medium (yeast extract 1%, polypepton 2%, glucose 2%). One of toxic chemical substances was added to the cells at logarithmic growth phase, and the cells were further incubated for two hours. Cells were cultured without any chemical substance in the same condition, and were used as control. Concentrations of the chemical substances were defined to inhibit the growth of the yeast but not lead to death.
After completion of the incubation, the culture was centrifuged to collect the cells. To the cells, sodium acetate buffer (50 mM sodium acetate, 10 mM EDTA, 1% SDS) was added, and the mixture was shaken at 65° C. for five minutes, followed by returning to room temperature, and obtaining the supernatant, of which the procedures were repeated two times. To the supernatant, ½ amount of a solution of phenol/chloroform was added, and the mixture was centrifuged to give a supernatant, which was added with an equal amount of chloroform, and the mixture was centrifuged to give a supernatant. To the supernatant, an equal amount of isopropanol containing 0.3 M sodium acetate was added, and the mixture was allowed to stand at room temperature for 30 minutes, after which the mixture was centrifuged to give a sediment of the whole RNAs. Seventy % ethanol was added to the sediment, and the mixture was again centrifuged to give a sediment, which was then dried and dissolved in water. mRNA was isolated from the whole RNAs as followings. In view of the fact that a poly A chain is attached to the 3′ terminus of mRNA, a polynucleotide having a poly T structure which was immobilized on the surface of latex beads was used to trap the mRNA, and then the mRNA was washed and eluted with spine column (Oligotex-dT30<Super>mRNA Purification Kit, Takara). Reverse transcription of the mRNA was conducted with a reverse transcriptase (Super Script II Reverse Transcriptase; catalogue No. 18064-014, GibcoBRL) using fluorescence-labeled nucleotides to give cDNAs that were introduced with Cy3-dUTP or Cy5-dUTP during the reverse transcription.
The labeled cDNAs were dissolved in TE buffer (10mM Tris-HCl/1 mM EDTA, pH8.0), and the solution was dropped on the DNA chip containing the whole genes of yeast (DNA Chip Research Inc. Japan) so that the cDNAs were hybridized on the DNA chip at 65° C. for over 12 hours. The fluoresces intensity of the DNA chip was read with a scanner, and the ratio relative to the fluorescence intensity resulting from the absence of chemical substance was estimated as the following, which is shown in Tables 1 to 9: […]

SMILES: [Cl][Pb][Cl] [(4), PbCl2]
- The level of expressed mRNA in the presence of chemical substance/The level of expressed mRNA in the absence of chemical substance (yeast gene YAL015C): 1.9
- The level of expressed mRNA in the presence of chemical substance/The level of expressed mRNA in the absence of chemical substance (yeast gene YAR007C): 0.5
- The level of expressed mRNA in the presence of chemical substance/The level of expressed mRNA in the absence of chemical substance (yeast gene YBL019W): 1.2
- The level of expressed mRNA in the presence of chemical substance/The level of expressed mRNA in the absence of chemical substance (yeast gene YBR073W): 0.7
- The level of expressed mRNA in the presence of chemical substance/The level of expressed mRNA in the absence of chemical substance (yeast gene YBR272C): 1.0
- The level of expressed mRNA in the presence of chemical substance/The level of expressed mRNA in the absence of chemical substance (yeast gene YCR014C): 0.6
- The level of expressed mRNA in the presence of chemical substance/The level of expressed mRNA in the absence of chemical substance (yeast gene YDL017W): 1.3
- The level of expressed mRNA in the presence of chemical substance/The level of expressed mRNA in the absence of chemical substance (yeast gene YDL059C): 1.7
- The level of expressed mRNA in the presence of chemical substance/The level of expressed mRNA in the absence of chemical substance (yeast gene YDL200C): 1.8
- The level of expressed mRNA in the presence of chemical substance/The level of expressed mRNA in the absence of chemical substance (yeast gene YDR054C): 1.4
- The level of expressed mRNA in the presence of chemical substance/The level of expressed mRNA in the absence of chemical substance (yeast gene YDR369C): 1.1
- The level of expressed mRNA in the presence of chemical substance/The level of expressed mRNA in the absence of chemical substance (yeast gene YEL019C): 0.7
- The level of expressed mRNA in the presence of chemical substance/The level of expressed mRNA in the absence of chemical substance (yeast gene YEL037C): 1.0
- The level of expressed mRNA in the presence of chemical substance/The level of expressed mRNA in the absence of chemical substance (yeast gene YER162C): 1.1
- The level of expressed mRNA in the presence of chemical substance/The level of expressed mRNA in the absence of chemical substance (yeast gene YFL014W): 11.0
- The level of expressed mRNA in the presence of chemical substance/The level of expressed mRNA in the absence of chemical substance (yeast gene YGL058W): 0.7
- The level of expressed mRNA in the presence of chemical substance/The level of expressed mRNA in the absence of chemical substance (yeast gene YGL091C): 1.7
- The level of expressed mRNA in the presence of chemical substance/The level of expressed mRNA in the absence of chemical substance (yeast gene YGL127C): 1.7
- The level of expressed mRNA in the presence of chemical substance/The level of expressed mRNA in the absence of chemical substance (yeast gene YGL163C): 4.3
- The level of expressed mRNA in the presence of chemical substance/The level of expressed mRNA in the absence of chemical substance (yeast gene YGL249W): 0.8
- The level of expressed mRNA in the presence of chemical substance/The level of expressed mRNA in the absence of chemical substance (yeast gene YGR180C): 1.0
- The level of expressed mRNA in the presence of chemical substance/The level of expressed mRNA in the absence of chemical substance (yeast gene YGR231C): 1.0
- The level of expressed mRNA in the presence of chemical substance/The level of expressed mRNA in the absence of chemical substance (yeast gene YGR258C): 0.7
- The level of expressed mRNA in the presence of chemical substance/The level of expressed mRNA in the absence of chemical substance (yeast gene YHR164C): 0.7
- The level of expressed mRNA in the presence of chemical substance/The level of expressed mRNA in the absence of chemical substance (yeast gene YIL036W): 1.8
- The level of expressed mRNA in the presence of chemical substance/The level of expressed mRNA in the absence of chemical substance (yeast gene YIL072W): 2.6
- The level of expressed mRNA in the presence of chemical substance/The level of expressed mRNA in the absence of chemical substance (yeast gene YIL143C): 0.9
- The level of expressed mRNA in the presence of chemical substance/The level of expressed mRNA in the absence of chemical substance (yeast gene YIL153W): 2.9
- The level of expressed mRNA in the presence of chemical substance/The level of expressed mRNA in the absence of chemical substance (yeast gene YIR002C): 0.6
- The level of expressed mRNA in the presence of chemical substance/The level of expressed mRNA in the absence of chemical substance (yeast gene YJL026W): 1.0
- The level of expressed mRNA in the presence of chemical substance/The level of expressed mRNA in the absence of chemical substance (yeast gene YJR046W): 1.5
- The level of expressed mRNA in the presence of chemical substance/The level of expressed mRNA in the absence of chemical substance (yeast gene YJR052W): 1.0
- The level of expressed mRNA in the presence of chemical substance/The level of expressed mRNA in the absence of chemical substance (yeast gene YKL145W): 1.0
- The level of expressed mRNA in the presence of chemical substance/The level of expressed mRNA in the absence of chemical substance (yeast gene YLR103C): 0.4
- The level of expressed mRNA in the presence of chemical substance/The level of expressed mRNA in the absence of chemical substance (yeast gene YLR233C): 2.0
- The level of expressed mRNA in the presence of chemical substance/The level of expressed mRNA in the absence of chemical substance (yeast gene YLR288C): 1.8
- The level of expressed mRNA in the presence of chemical substance/The level of expressed mRNA in the absence of chemical substance (yeast gene YML032C): 0.7
- The level of expressed mRNA in the presence of chemical substance/The level of expressed mRNA in the absence of chemical substance (yeast gene YML058W): 1.9
- The level of expressed mRNA in the presence of chemical substance/The level of expressed mRNA in the absence of chemical substance (yeast gene YMR035W): 1.7
- The level of expressed mRNA in the presence of chemical substance/The level of expressed mRNA in the absence of chemical substance (yeast gene YMR072W): 1.0
- The level of expressed mRNA in the presence of chemical substance/The level of expressed mRNA in the absence of chemical substance (yeast gene YMR096W): 0.8
- The level of expressed mRNA in the presence of chemical substance/The level of expressed mRNA in the absence of chemical substance (yeast gene YMR284W): 2.0
- The level of expressed mRNA in the presence of chemical substance/The level of expressed mRNA in the absence of chemical substance (yeast gene YNL213C): 1.5
- The level of expressed mRNA in the presence of chemical substance/The level of expressed mRNA in the absence of chemical substance (yeast gene YNL250W): 1.2
- The level of expressed mRNA in the presence of chemical substance/The level of expressed mRNA in the absence of chemical substance (yeast gene YNL261W): 1.3
- The level of expressed mRNA in the presence of chemical substance/The level of expressed mRNA in the absence of chemical substance (yeast gene YNL312W): 0.7
- The level of expressed mRNA in the presence of chemical substance/The level of expressed mRNA in the absence of chemical substance (yeast gene YOL043C): 1.7
- The level of expressed mRNA in the presence of chemical substance/The level of expressed mRNA in the absence of chemical substance (yeast gene YOR005C): 0.8
- The level of expressed mRNA in the presence of chemical substance/The level of expressed mRNA in the absence of chemical substance (yeast gene YOR386W): 1.5
- The level of expressed mRNA in the presence of chemical substance/The level of expressed mRNA in the absence of chemical substance (yeast gene YPL022W): 1.2
- The level of expressed mRNA in the presence of chemical substance/The level of expressed mRNA in the absence of chemical substance (yeast gene YPL164C): 1.0
- The level of expressed mRNA in the presence of chemical substance/The level of expressed mRNA in the absence of chemical substance (yeast gene YPL194W): 1.1
- The level of expressed mRNA in the presence of chemical substance/The level of expressed mRNA in the absence of chemical substance (yeast gene YPR025C): 0.6
